Results: PMC10492782, “Exploiting the aggregation propensity of beta-lactamases to design inhibitors that induce enzyme misfolding” (Nature Communications, 2023)
Several values for one entry are separate records, joined by “and”; a condition that tells them apart may be missing. Equal entries are not always repeated. Structures can show the parent of a compound that is named as a salt.

Columns and labels:
[1] = system: TEM-1; conditions: ampicillin as substrate; cited from earlier work
[2] = system: uro-pathogenic E. coli strain (UPEC strain blaTEM-1); assay: MIC of ampicillin with or without 32 µg/mL TEM3.2 or tazobactam; format: cell-based, Escherichia coli
Description: (§1) We also performed a tolerability study using a dose escalation method by administering the peptide at 2, 5, 10, 15, and 20 mg/kg via different parenteral routes: intravenous (IV), intraperitoneal (IP), and subcutaneous (SC) in female C57BL/6JAX mice, aged 8–10 weeks (Suppl Table 4). […] Vehicle alone (0.9% NaCl) was also administered (IV). After 24 h the animals were sacrificed and the bacterial load in the bladder, kidney, and ureter was quantified by determining the number of colony-forming units (CFU) per mL of tissue extract (Fig. 7E–G).
Determination of MIC values was performed using the broth microdilution method according to the EUCAST guideline, which was performed in 96-well polystyrene flat-bottom microtiter plates (BD Biosciences). Briefly, a single colony was inoculated into 5 mL Difco™ Mueller–Hinton Broth (BD Biosciences Ref 275730) and grown to the end-exponential growth phase in a shaking incubator at 37 °C. Cultures were subsequently diluted to a MacFarland (0.5 optical density) to reach 10^6 CFU/mL in fresh MHB medium. 50 µl of different concentrations of peptides ranging from 128 to 2 µg/mL were serially diluted to the sterile 96-well plate in MHB. 50 µL of the diluted bacteria in MHB were next pipetted into 96-well plates to reach the final volume of 100 µL. The bacteria grown with the maximum concentration of carrier and medium were considered positive and negative controls, respectively. The plates were statically incubated overnight at 37 °C to allow bacterial growth. OD was measured at 590 nm using a multipurpose ultraviolet–visible plate reader, and the absorbance of the bacterial growth was measured using an absorbance reader.

[3] = system: E. coli NDM5a; assay: VITEK 2 AST antimicrobial susceptibility testing; format: cell-based, Escherichia coli
Description: (§2) Beta-lactamase clinical samples were collected from University Hospitals Leuven and tested for ESBL production using the disk diffusion method. The beta-lactamase reference isolates were purchased from International Health Management Associates (IHMA). Bacterial strains were cultivated in Mueller–Hinton Broth (MHB, Difco) at 37 °C. Whenever required, growth media were supplemented with appropriate antibiotics to the medium or plates (kanamycin 30 µg/mL, L-arabinose 0.5 mg/mL, and IPTG […]). Escherichia coli BL21 (ThermoFisher Scientific, Belgium) was used for cloning and plasmid amplification. For the selection of antibiotic resistant colonies, E. coli carrying plasmids was grown in LB agar plates supplemented with the relevant antibiotic. Bacterial CFU counting was done on blood agar plates (BD Biosciences, Belgium) or MHA agar plates. Species identification and antibiograms for all clinical isolates were performed using MALDI-Tof and VITEK® 2 automated system (BioMérieux, France).
(§3) Khodaparast et al Supplementary data
(§4) study. […] Abbreviations: S,
(§5) susceptible; I, intermediate; R, resistant.

[4] = system: E. coli SHV1 (APHA); assay: VITEK 2 AST antimicrobial susceptibility testing; format: cell-based, Escherichia coli
Description: as §2, §3, §4, §5

[5] = system: E. coli TEM-206; assay: VITEK 2 AST antimicrobial susceptibility testing; format: cell-based, Escherichia coli; conditions: E. coli TEM-206
Description: as §2, §3, §4, §5

[6] = system: E. coli TEM-16; assay: VITEK 2 AST antimicrobial susceptibility testing; format: cell-based, Escherichia coli
Description: as §2, §3, §4, §5

[7] = system: E. coli TEM-148; assay: VITEK 2 AST antimicrobial susceptibility testing; format: cell-based, Escherichia coli
Description: as §2, §3, §4, §5

[8] = system: E. coli TEM-104; assay: VITEK 2 AST antimicrobial susceptibility testing; format: cell-based, Escherichia coli
Description: as §2, §3, §4, §5

[9] = system: E. coli NDM5b; assay: VITEK 2 AST antimicrobial susceptibility testing; format: cell-based, Escherichia coli
Description: as §2, §3, §4, §5

[10] = system: VIM-1; conditions: ampicillin as substrate; cited from earlier work
Text: (§6) Abbreviations: S, susceptible; I, intermediate; R, resistant.

[11] = system: OXA-48; conditions: ampicillin as substrate; cited from earlier work
Text: as §6

[12] = system: E. coli TEM-30; format: cell-based, Escherichia coli
Description: as §2, §3, §4, §5

[13] = system: NDM-5; conditions: ampicillin as substrate; cited from earlier work
[14] = target: T1, SHV-11 (Klebsiella pneumoniae, UniProt P0AD64, L31Q); assay: Thermal denaturation, Right-Angle Light Scattering (aggregation); format: biochemical; conditions: excess of tazobactam; less marked than for TEM-1
T1 construct: His-tag (N); TEV cleavage site (N); made in house; host or cells: E. coli BL21 (DE3)
T1 sequence (P0AD64 22-286 L31Q): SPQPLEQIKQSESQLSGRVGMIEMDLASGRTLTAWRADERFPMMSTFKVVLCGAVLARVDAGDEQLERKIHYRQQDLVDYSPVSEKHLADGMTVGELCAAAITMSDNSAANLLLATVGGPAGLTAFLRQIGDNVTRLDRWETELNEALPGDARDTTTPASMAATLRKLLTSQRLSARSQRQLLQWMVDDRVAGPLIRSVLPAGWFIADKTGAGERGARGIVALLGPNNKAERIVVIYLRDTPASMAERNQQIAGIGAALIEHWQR

[15] = system: uro-pathogenic E. coli strain (UPEC strain blaTEM-1); assay: Urinary tract infection model, bacterial load in bladder, kidney, ureter; format: in vivo, female C57BL/6JAX mice; set-up: bacterial load, Ureters / bacterial load, Bladder / bacterial load, Kindey: unit: CFU per mL of tissue extract
Description: Fig. 7 Evaluation of in vivo use of peptides that induce the aggregation of TEM beta-lactamase. A Lysis of human erythrocytes (hemolysis) was assessed in the presence of the indicated concentrations of TEM3.2 for 2 h at 37 °C, and normalized to the value obtained with 1% of the detergent triton. […] B Cell viability using the CellTiter Blue assay of HeLa cells treated for 24 h with the indicated concentrations TEM 3.2 at 37 °C. […] DAPI (4’,6-diamidino-2-phenylindole) is blue, while CellMask is red. D Experimental workflow of the in vivo model used in this study. E–G Bacterial load of indicated organs of female C57BL/6JAX mice with a urinary tract infection with E. coli strain UZ_TEM104, treated with 30 mg/kg penicillin (oral) as well 10 mg/kg tazobactam (oral) or 10 mg/kg TEM3.2 via the indicated treatment route. IV intravenous, IP intraperitoneal, SC subcutaneously. The data shown is from a single experiment with 12 animals for each group. The result for each animal is shown as a dot. […] The statistically significant differences were determined using ANOVA, followed by Dunnett’s multiple comparison test. […] Source data are provided as a Source Data file.
as §1
To test the efficacy of the peptides, a urinary tract infection model was performed as described previously. Briefly, female C57BL/6Jax mice female mice were deprived of water for at least 1 h. Then, they were anesthetized by IP administration of the mixture of ketamine (Nimatek)/xylazine (XYL-M 2% BE-V170581). The bladder of the mouse was massaged with fingers and pushed down gently to expel the remaining urine. Mice were slowly inoculated urethrally with 50 µL of a bacterial suspension slowly over 5 s to avoid vesicoureteral reflux (10^8 CFU/ mouse) using a sterile catheter (pediatric intravenous-access cannula (GS391350)). The catheter was removed directly after inoculation. After surgery, the animals were visually monitored for full recovery. After 1 h post inoculation, all mice received Ampicillin (30 mg/kg_PO-orally) and at the same time 3 groups of animals received the peptides via different administration routes (10 mg/kg_IV—intravenous; IP—intraperitoneal or SC—sub-cutaneous) and the positive control groups received tazobactam (10 mg/kg, PO). The negative control groups received vehicle or saline (IV administration). 2 h post inoculation, all mice received a second injection with the same concentration of each treatment as explained above. Twenty-four hours post-infection, mice were sacrificed and organs (kidney, bladder, ureter) were washed with PBS and were homogenized (Thermo Savant FastPrep FP120 Homogenizer/24 s). The homogenized tissues were serially diluted and cultured on blood agar plates. The plates were incubated overnight at 37 °C, and the number of bacteria was measured by CFU value.

[16] = target: T2, TEM-1 (Escherichia coli, UniProt P62593); format: biochemical, E. coli; set-up: His-tag (N); TEV cleavage site (N); made in house; host or cells: E. coli BL21 (DE3)
T2 sequence (P62593 24-286 limits assumed): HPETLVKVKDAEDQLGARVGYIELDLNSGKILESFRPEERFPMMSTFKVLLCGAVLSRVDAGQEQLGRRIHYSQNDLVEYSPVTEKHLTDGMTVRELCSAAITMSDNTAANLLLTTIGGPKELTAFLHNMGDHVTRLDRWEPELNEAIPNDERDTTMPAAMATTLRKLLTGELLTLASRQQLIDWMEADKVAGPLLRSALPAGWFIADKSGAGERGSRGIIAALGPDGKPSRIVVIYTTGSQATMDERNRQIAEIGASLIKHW
Description: Then, we performed a thermal denaturation whilst simultaneously monitoring the intrinsic fluorescence as a measure of the folding status of the molecule (Fig. 1D and Supplementary Fig. 2D) and the static light scattering as a measure of aggregation (Fig. 1E and Supplementary Fig. 2E).
D Heat denaturation of TEM-1 monitored by intrinsic fluorescence plotted as the BaryCentric Mean (BCM) of the fluorescence emission spectrum in the presence (red) and absence (blue) of tazobactam. […] E Temperature-dependent evolution of the Right-Angle Light Scattering (RALS) intensity measured simultaneously with the data in D to monitor protein aggregation. […] F Same data as in E, but showing a dose-titration of the beta-lactamase inhibitor tazobactam.

[17] = target: T2, TEM-1; format: biochemical
Description: To satisfy the reviewer’s comment, we have performed urea denaturation in the presence
of a molar excess of tazobactam and compared it to the condition without.
two-state denaturation of the protein with a stable intermediate. The difference between
The plots show a single repeat.
Table 1: Results from fitting 3 replicates
G1 (kcal/mol) G2 (kcal/mol) Sum

[18] = system: E. coli strain UZ_TEM104; assay: microbe, parasite or virus in culture; format: cell-based, Escherichia coli
[19] = target: the molecule itself; assay: Thioflavin-T and pFTAA fluorescence kinetics + DLS + transmission electron microscopy; 50 μM TEM3.2 with polyphosphate (PolyP); electron microscopy after 24 h incubation at RT; the peptide is called soluble in buffer alone
[20] = group Tazo, each column one mouse

For `CC1(C)S[C@@H]2[C@H](NC(=O)[C@H](N)c3ccccc3)C(=O)N2[C@H]1C(=O)O` [Ampicillin], the Kcat [1] is listed as 1428 s⁻¹, the Km [1] is listed as 50 µM and the MIC ([2]; Escherichia coli, no additive) is listed as 1200 µg/mL. For the same molecule, the Interoretation ([3]; E. coli NDM5a) was “R”, the Interpretation ([3]; VITEK 2 AST card) was “R” and the Interoretation ([4]; E. coli SHV154) was “R”. The Interpretation ([4]; VITEK 2 AST card) was “R”, the Interoretation [5] was “R” and the Interoretation ([6]; E. coli TEM-16) was “R”. For the same molecule, the Interpretation ([6]; VITEK 2 AST card) was “R”, the Interoretation ([7]; E. coli TEM-148) was “R” and the Interpretation ([7]; VITEK 2 AST card) was “R”. For the same molecule, the Interoretation ([8]; E. coli TEM-104) was “R”, the Interpretation ([8]; VITEK 2 AST card) was “R” and the Interoretation ([9]; E. coli NDM5b) was “R”. The Interpretation ([9]; VITEK 2 AST card) was “R”, the Kcat [10] was 37 s⁻¹ and the Km [10] was 917 µM. For the same molecule, the Kcat [11] was 955 s⁻¹, the Km [11] was 395 µM and the Interoretation ([12]; E. coli TEM-30) was “R”. For the same molecule, the Interpretation ([12]; VITEK 2 AST card) was “R”, the Kcat [13] was 1912 s⁻¹ and the Km [13] was 118 µM.

With `C[C@]1(Cn2ccnn2)[C@H](C(=O)O)N2C(=O)C[C@H]2S1(=O)=O` [Tazobactam, tazobactam sodium salt] the “effect on aggregation of SHV-11 during thermal denaturation (in words)” value [14] was “a decrease in the aggregation of the protein”, the “MIC Ampicillin in the presence of additive” value ([2]; 32 μg/mL of either TEM3.2 or tazobactam) was 25 µg/mL and the “best reduction of the bacterial load” value ([15]; 10 mg/kg plus 30 mg/kg Ampicillin orally at 60 and 120 min post-infection, CFU at 24 h, most robust in kidney and ureter) was 1.8 log folds. The “bacterial load, Bladder” value [15, 20] was 26566.7 and 152667 and 97400 and 1 and 3700 and 1433.33 and 3000 and 1800 and 1966.67 and 316733 and 4266.67 and 3266.67, the “bacterial load, Kindey” value [15, 20] was 24000 and 134000 and 72733.3 and 633.333 and 1 (3×) and 10200 and 2066.67 and 17700 and 9833.33 and 4600 and the “bacterial load, Ureters” value [15, 20] was 2433.33 and 54400 and 33133.3 and 133.333 and 166.667 and 1 (2×) and 1000 and 800 and 11633.3 and 1900 and 1166.67. For the same molecule, the “effect on aggregation of TEM-1 during thermal denaturation (in words)” value ([16]; excess of tazobactam, more marked for TEM-1 than SHV-11) was “a decrease in the aggregation of the protein”, the “effect on aggregation of TEM-1, dose-response (in words)” value ([16]; static light scattering during temperature ramp, inhibitor titration) was “reduce the aggregation of the enzyme in a dose-responsive manner” and the Sum ([17]; G1 + G2, with molar excess of tazobactam (no tazo 10.40)) was 10.28 kcal/mol. The G2 ([17]; urea denaturation of TEM-1 with molar excess of tazobactam, 3-state fit, 3 replicates (no tazo 5.00)) was 4.03 kcal/mol, the G1 ([17]; urea denaturation of TEM-1 with molar excess of tazobactam, 3-state fit, 3 replicates (no tazo 5.40)) was 6.25 kcal/mol and the MIC penicillin ([18]; E. coli UZ_TEM104, concentration of additive 50 (mg/mL [sic])) was 400000 µg/mL. The “fold reduction of the MIC of penicillin G” value ([18]; additive at 50 μg/mL) was 4 fold and the MIC penicillin ([18]; in the presence of additive (peptide or tazobactam) at fixed 50 μg/mL) was 400 µg/mL.

B1: Pept-In TEM3.2 (peptide)
peptide: Ac-RLTAFLHNRRPRLTAFLRQRR-NH2
notes: designed tandem of the TEM version (LTAFLHN) and the SHV version (LTAFLRQ) of APR 3, each flanked by Arg, with a Pro linker; also called peptide TEM3.2; source: synthetic peptide (Genscript, >90% purity; also in-house solid-phase synthesis)
B1: binds [19].
